Measured values as given in the NIST ThermoML archive (doi:10.1021/je060088h).
Numbers after ± are expanded uncertainties.

Conditions: Liquid, flow method with low res time

OCCc1ccccc1 [2-phenylethanol]
Conditions	Critical pressure [kPa]	Critical temperature [K]	vapor or sublimation pressure [kPa]
–	3990 ± 160	723.5 ± 4	–
488.7 K	–	–	91.7 ± 3.7
515.5 K	–	–	174.9 ± 7
547.5 K	–	–	340.6 ± 14
587.4 K	–	–	692.9 ± 28
634.4 K	–	–	1382 ± 55
689.8 K	–	–	2762 ± 110
711.2 K	–	–	3451 ± 140
719.2 K	–	–	3793 ± 150
722.5 K	–	–	3966 ± 160

CCCCCCCCCCCCS [1-dodecanethiol]
Conditions	Critical pressure [kPa]	Critical temperature [K]	vapor or sublimation pressure [kPa]
–	1810 ± 70	733.7 ± 4	–
544.5 K	–	–	89.98 ± 3.6
577.8 K	–	–	178.6 ± 7.2
614.7 K	–	–	348.2 ± 14
659.9 K	–	–	694.3 ± 28
688.6 K	–	–	1039 ± 42
712.4 K	–	–	1384 ± 55
729.8 K	–	–	1726 ± 69

c1ccc2ccccc2c1 [naphthalene]
Conditions	Critical pressure [kPa]	Critical temperature [K]	vapor or sublimation pressure [kPa]
–	4130 ± 170	750 ± 4	–
502.2 K	–	–	128.9 ± 5.2
552.2 K	–	–	337.8 ± 14
646.6 K	–	–	1338 ± 54
731.8 K	–	–	3445 ± 140
741.5 K	–	–	3793 ± 150
745.9 K	–	–	3958 ± 160

CC(O)COC(C)(C)C (stereo unspecified) [1-(1,1-dimethylethoxy)-2-propanol]
Conditions	Critical pressure [kPa]	Critical temperature [K]	vapor or sublimation pressure [kPa]
–	2720 ± 110	600.7 ± 4	–
450.5 K	–	–	200.9 ± 8.1
472.9 K	–	–	337.8 ± 14
510.2 K	–	–	689.5 ± 28
553.3 K	–	–	1380 ± 55
592.7 K	–	–	2414 ± 97
597.5 K	–	–	2586 ± 100
598.5 K	–	–	2668 ± 110

CSc1ccccc1 [1-phenyl-1-thiaethane]
Conditions	Critical pressure [kPa]	Critical temperature [K]	vapor or sublimation pressure [kPa]
–	4050 ± 160	705.9 ± 4	–
463.7 K	–	–	90.87 ± 3.7
492.1 K	–	–	177.3 ± 7.1
526.3 K	–	–	354.1 ± 14
566.1 K	–	–	696.4 ± 28
613.6 K	–	–	1383 ± 55
671.1 K	–	–	2765 ± 110
691.7 K	–	–	3454 ± 140
699.9 K	–	–	3799 ± 150
704.3 K	–	–	3964 ± 160

CCCCCCCCCCCCCCCCCCCCCCCCCCCCCC [triacontane]
Conditions	vapor or sublimation pressure [kPa]
713.5 K	82.32 ± 3.3
737.8 K	127.8 ± 5.1
761.2 K	190.2 ± 7.6
786 K	282.4 ± 11
809.6 K	414.1 ± 17

C=CCO [2-propenol]
Conditions	Critical pressure [kPa]	Critical temperature [K]	vapor or sublimation pressure [kPa]
–	5640 ± 330	547.1 ± 4	–
438.1 K	–	–	759.8 ± 82
465.2 K	–	–	1383 ± 150
498.5 K	–	–	2595 ± 280
531.5 K	–	–	4482 ± 480
545.4 K	–	–	5516 ± 590
546.5 K	–	–	5599 ± 600
